Measurements taken from US11814444B2, “Cyclic polypeptides for PCSK9 inhibition” (Ra Pharmaceuticals, Inc., priority 2018, dated 2023).
Numbered stars: 1 amine (or outer) side, 2 acyl side, 3 side chain; on linkers, the order of the positions; unused ones are H or OH. Bridge positions count the residues as written; N and C are the ends. Square brackets hold non-standard residues; d marks the D form. Peptide text beside a SMILES is read from it. Phe(4-COOH) = N[C@@H](Cc1ccc(C(=O)O)cc1)C(=O)O; Trp(7-aza) = N[C@@H](Cc1c[nH]c2ncccc12)C(=O)O; NMeW = CN[C@@H](Cc1c[nH]c2ccccc12)C(=O)O; Ala(2-furyl) = N[C@@H](Cc1ccco1)C(=O)O; 1Nal = N[C@@H](Cc1cccc2ccccc12)C(=O)O; mXylylene = c1cc(C[*:1])cc(C[*:2])c1; Aad = N[C@@H](CCCC(=O)O)C(=O)O; Aic = NC1(C(=O)O)Cc2ccccc2C1; Chg = N[C@H](C(=O)O)C1CCCCC1; Tle = CC(C)(C)[C@H](N)C(=O)O; αMeV = CC(C)[C@](C)(N)C(=O)O; hSer = N[C@@H](CCO)C(=O)O; Ac5c = NC1(C(=O)O)CCCC1; Nva = CCC[C@H](N)C(=O)O; Thp = NC1(C(=O)O)CCOCC1; Mpa = O=C(O)CCS

Each compound was assayed against human PCSK9 / human LDLR EGFa domain interaction (Homo sapiens, UniProt Q8NBP7) (assay: TR-FRET assay of inhibition of the PCSK9-LDLR protein-protein interaction). Conditions: 20 nM avitag-biotinylated human PCSK9, 20 nM his-tagged human LDLR EGFa domain, 2 hours, room temperature.
human PCSK9 / human LDLR EGFa domain interaction, sequence (Q8NBP7 153-692): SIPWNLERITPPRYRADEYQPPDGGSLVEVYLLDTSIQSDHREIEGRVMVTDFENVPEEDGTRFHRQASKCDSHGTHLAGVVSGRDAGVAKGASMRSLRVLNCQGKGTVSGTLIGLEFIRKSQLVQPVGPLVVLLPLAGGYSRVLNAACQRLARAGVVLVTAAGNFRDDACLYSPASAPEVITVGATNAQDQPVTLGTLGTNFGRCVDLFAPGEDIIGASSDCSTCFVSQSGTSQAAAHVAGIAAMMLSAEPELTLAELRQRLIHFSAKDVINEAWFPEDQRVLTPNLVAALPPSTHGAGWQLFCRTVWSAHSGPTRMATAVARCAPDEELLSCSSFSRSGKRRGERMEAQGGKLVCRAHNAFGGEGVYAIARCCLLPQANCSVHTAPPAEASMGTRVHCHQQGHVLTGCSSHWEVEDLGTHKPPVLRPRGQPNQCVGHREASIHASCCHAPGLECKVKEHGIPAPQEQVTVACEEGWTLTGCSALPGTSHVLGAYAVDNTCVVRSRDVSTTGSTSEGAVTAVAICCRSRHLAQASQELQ
human PCSK9 / human LDLR EGFa domain interaction, sequence (Q8NBP7 31-152 partner limits assumed): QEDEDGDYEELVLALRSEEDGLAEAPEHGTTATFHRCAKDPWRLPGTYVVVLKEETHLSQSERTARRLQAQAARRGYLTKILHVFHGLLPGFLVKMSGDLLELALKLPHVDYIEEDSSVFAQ
Format: binding
Method: A time-resolved fluorescence resonance energy (TR-FRET) assay was used to measure inhibition of the PCSK9-LDLR protein-protein interaction. Briefly, 20 nM avitag-biotinylated human PCSK9 was incubated with 20 nM his-tagged human LDLR EGFa domain in the presence of 5 nM LANCE Ulight Streptavidin (Perkin Elmer) and 5 nM europium-Anti-6×His (Perkin Elmer) for 2 hours covered at room temperature in buffer containing 50 mM HEPES, 150 mM NaCl, 5 mM CaCl2), 0.01% BSA and 0.01% Surfactant P20. Compounds were tested in dose-response and concentrations giving half-maximal inhibition calculated using a 4-parameter fit equation.

First: CCC[C@@H]1NC(=O)[C@H](Cc2c[nH]c3ncccc23)NC(=O)[C@H]([C@@H](C)O)NC(=O)[C@H](Cc2c[nH]cn2)NC(=O)[C@H](Cc2ccc(O)cc2)NC(=O)[C@H](C(C)(C)C)NC(=O)CCSCc2cccc(c2)CSC[C@@H](C(N)=O)NC(=O)[C@H]([C@@H](C)O)NC(=O)[C@H](CCC)NC(=O)[C@H](Cc2ccc(O)cc2)NC(=O)[C@H](CCO)NC1=O [Compound 274] ([Mpa][Tle]YHT[Trp(7-aza)][Nva][hSer]Y[Nva]TC-NH2; linker 1-12 via mXylylene)
Second: CCC[C@@H]1NC(=O)[C@H](Cc2c[nH]c3ncccc23)NC(=O)[C@H]([C@@H](C)OC)NC(=O)[C@H](Cc2c[nH]cn2)NC(=O)[C@H](Cc2ccc(O)cc2)NC(=O)[C@H](C(C)(C)C)NC(=O)CCSCc2cccc(c2)CSC[C@@H](C(N)=O)NC(=O)[C@H]([C@@H](C)O)NC(=O)[C@H](CCC)NC(=O)[C@H](Cc2ccc(O)cc2)NC(=O)[C@H](CCC(=O)O)NC1=O [Compound 333] ([Mpa][Tle]YHT(Me)[Trp(7-aza)][Nva]EY[Nva]TC-NH2; linker 1-12 via mXylylene)
The IC50 of the first is lower: 100 to 1000 nM for the first, 1000 to 21000 nM for the second. The first is the more potent here.

First: CCC[C@@H]1NC(=O)[C@H](Cc2c[nH]c3ncccc23)NC(=O)[C@H]([C@@H](C)O)NC(=O)[C@H](Cc2c[nH]cn2)NC(=O)[C@H](Cc2ccc(O)cc2)NC(=O)[C@H](C(C)(C)C)NC(=O)CCSCc2cccc(c2)CSC[C@@H](C(N)=O)NC(=O)[C@H]([C@@H](C)O)NC(=O)[C@H](CCC)NC(=O)[C@H](Cc2ccc(O)cc2)NC(=O)[C@H](Cc2ccc(C(=O)O)cc2)NC1=O [Compound 278] ([Mpa][Tle]YHT[Trp(7-aza)][Nva][Phe(4-COOH)]Y[Nva]TC-NH2; linker 1-12 via mXylylene)
Second: CCC[C@@H]1NC(=O)[C@H](Cc2c[nH]c3ncccc23)NC(=O)[C@H]([C@@H](C)O)NC(=O)[C@H](Cc2ccco2)NC(=O)[C@H](Cc2ccc(O)cc2)NC(=O)[C@H](C(C)(C)C)NC(=O)CCSCc2cccc(c2)CSC[C@@H](C(N)=O)NC(=O)[C@H]([C@@H](C)O)NC(=O)[C@H](CCC)NC(=O)[C@H](Cc2ccc(O)cc2)NC(=O)[C@H](CCC(=O)O)NC1=O [Compound 117] ([Mpa][Tle]Y[Ala(2-furyl)]T[Trp(7-aza)][Nva]EY[Nva]TC-NH2; linker 1-12 via mXylylene)
The IC50 of the first is higher: 21000 to 50000 nM for the first, 1000 to 21000 nM for the second. The second is the more potent here.

First: CCC[C@@H]1NC(=O)[C@H](Cc2cccc3ccccc23)NC(=O)[C@H]([C@@H](C)O)NC(=O)[C@H](Cc2c[nH]cn2)NC(=O)[C@H](Cc2ccc(O)cc2)NC(=O)[C@H](C(C)(C)C)NC(=O)CCSCc2cccc(c2)CSC[C@@H](C(N)=O)NC(=O)[C@H]([C@@H](C)O)NC(=O)[C@H](CCC)NC(=O)[C@H](Cc2ccc(O)cc2)NC(=O)[C@H](CCC(=O)O)NC1=O [Compound 277] ([Mpa][Tle]YHT[1Nal][Nva]EY[Nva]TC-NH2; linker 1-12 via mXylylene)
Second: CCC[C@@H]1NC(=O)[C@H](Cc2ccc(O)cc2)NC(=O)[C@H](CCC(=O)O)NC(=O)[C@H](CCC)NC(=O)[C@H](Cc2c[nH]c3ccccc23)N(C)C(=O)[C@H]([C@@H](C)O)NC(=O)[C@H](Cc2c[nH]cn2)NC(=O)[C@H](Cc2ccc(O)cc2)NC(=O)[C@H](C(C)(C)C)NC(=O)CCSCc2cccc(c2)CSC[C@@H](C(N)=O)NC(=O)[C@H]([C@@H](C)O)NC1=O [Compound 206] ([Mpa][Tle]YHT[NMeW][Nva]EY[Nva]TC-NH2; linker 1-12 via mXylylene)
The IC50 of the first is lower: 100 to 1000 nM for the first, 50000 to 100000 nM for the second.

Compared with `CCC[C@@H]1NC(=O)[C@H](Cc2c[nH]c3ncccc23)NC(=O)[C@H]([C@@H](C)O)NC(=O)[C@@H]2CCCN2C(=O)[C@H](Cc2ccc(O)cc2)NC(=O)[C@H](C(C)(C)C)NC(=O)CCSCc2cccc(c2)CSC[C@@H](C(N)=O)NC(=O)[C@H](CCC(=O)O)NC(=O)[C@H](CCC)NC(=O)[C@H](Cc2ccc(O)cc2)NC(=O)[C@H](C)NC1=O` [Compound 159] ([Mpa][Tle]YPT[Trp(7-aza)][Nva]AY[Nva]EC-NH2; linker 1-12 via mXylylene), `CCC[C@@H]1NC(=O)[C@H](Cc2c[nH]c3ncccc23)NC(=O)[C@H]([C@@H](C)O)NC(=O)[C@@H]2CCCN2C(=O)[C@H](Cc2ccc(O)cc2)NC(=O)[C@H](C(C)(C)C)NC(=O)CCSCc2cccc(c2)CSC[C@@H](C(N)=O)NC(=O)[C@H]([C@@H](C)O)NC(=O)[C@H](CCC(=O)O)NC(=O)[C@H](Cc2ccc(O)cc2)NC(=O)[C@H](C)NC1=O` [Compound 160] ([Mpa][Tle]YPT[Trp(7-aza)][Nva]AYETC-NH2; linker 1-12 via mXylylene) is lower in IC50: 1000 to 21000 nM for the first, 100 to 1000 nM for the second. The second is the more potent here.

`CCC[C@@H]1NC(=O)[C@H](Cc2c[nH]c3ncccc23)NC(=O)[C@H]([C@@H](C)O)NC(=O)[C@H](Cc2c[nH]cn2)NC(=O)[C@H](Cc2ccc(O)cc2)NC(=O)[C@H](C(C)(C)C)NC(=O)CCSCc2cccc(c2)CSC[C@@H](C(N)=O)NC(=O)[C@H]([C@@H](C)O)NC(=O)[C@H](C2CCCCC2)NC(=O)[C@H](Cc2ccc(O)cc2)NC(=O)[C@H](CCC(=O)O)NC1=O` [Compound 285] ([Mpa][Tle]YHT[Trp(7-aza)][Nva]EY[Chg]TC-NH2; linker 1-12 via mXylylene) and `CCC[C@@H]1NC(=O)[C@H](Cc2ccc(O)cc2)NC(=O)[C@H](CCC(=O)O)NC(=O)C2(CCCC2)NC(=O)[C@H](Cc2c[nH]c3ncccc23)NC(=O)[C@H]([C@@H](C)O)NC(=O)[C@H](Cc2c[nH]cn2)NC(=O)[C@H](Cc2ccc(O)cc2)NC(=O)[C@H](C(C)(C)C)NC(=O)CCSCc2cccc(c2)CSC[C@@H](C(N)=O)NC(=O)[C@H]([C@@H](C)O)NC1=O` [Compound 299] ([Mpa][Tle]YHT[Trp(7-aza)][Ac5c]EY[Nva]TC-NH2; linker 1-12 via mXylylene) fall in the same range of IC50: 100 to 1000 nM for the first, 100 to 1000 nM for the second.

`CCC[C@@H]1NC(=O)[C@H]([C@@H](C)O)NC(=O)[C@@H]2CCCN2C(=O)[C@H](Cc2ccc(O)cc2)NC(=O)[C@H](C(C)(C)C)NC(=O)[C@@H](NC(C)=O)CCCCNC(=O)CCC[C@@H](C(N)=O)NC(=O)[C@H]([C@@H](C)O)NC(=O)[C@](C)(C(C)C)NC(=O)[C@H](Cc2ccc(O)cc2)NC(=O)[C@H](C)NC1=O` [Compound 057] (Ac-K[Tle]YPT[Nva]AY[αMeV]T[Aad]-NH2; lactam 1-11) and `CCC[C@@H]1NC(=O)[C@H](Cc2c[nH]c3ccccc23)NC(=O)[C@H]([C@@H](C)O)NC(=O)[C@@H]2CCCN2C(=O)[C@H](Cc2ccc(O)cc2)NC(=O)[C@H](C(C)(C)C)NC(=O)CCSCc2cccc(c2)CSC[C@@H](C(N)=O)NC(=O)[C@H]([C@@H](C)O)NC(=O)[C@](C)(C(C)C)NC(=O)[C@H](Cc2ccc(O)cc2)NC(=O)[C@H](C)NC1=O` [Compound 177] ([Mpa][Tle]YPTW[Nva]AY[αMeV]TC-NH2; linker 1-12 via mXylylene) fall in the same range of IC50: 1000 to 21000 nM for the first, 1000 to 21000 nM for the second.

First: CCC[C@@H]1NC(=O)[C@H](Cc2ccc(O)cc2)NC(=O)[C@H](CCC(=O)O)NC(=O)C2(CCOCC2)NC(=O)[C@H](Cc2c[nH]c3ncccc23)NC(=O)[C@H]([C@@H](C)O)NC(=O)[C@H](Cc2c[nH]cn2)NC(=O)[C@H](Cc2ccc(O)cc2)NC(=O)[C@H](C(C)(C)C)NC(=O)CCSCc2cccc(c2)CSC[C@@H](C(N)=O)NC(=O)[C@H]([C@@H](C)O)NC1=O [Compound 300] ([Mpa][Tle]YHT[Trp(7-aza)][Thp]EY[Nva]TC-NH2; linker 1-12 via mXylylene)
Second: CCC[C@@H]1NC(=O)[C@H](Cc2c[nH]c3ncccc23)NC(=O)[C@H]([C@@H](C)O)NC(=O)[C@@H](Cc2cnc[nH]2)NC(=O)[C@H](Cc2ccc(O)cc2)NC(=O)[C@H](C(C)(C)C)NC(=O)CCSCc2cccc(c2)CSC[C@@H](C(N)=O)NC(=O)[C@H]([C@@H](C)O)NC(=O)[C@H](CCC)NC(=O)[C@H](Cc2ccc(O)cc2)NC(=O)[C@H](CCC(=O)O)NC1=O [Compound 204] ([Mpa][Tle]Y[dH]T[Trp(7-aza)][Nva]EY[Nva]TC-NH2; linker 1-12 via mXylylene)
The IC50 of the first is lower: 100 to 1000 nM for the first, 1000 to 21000 nM for the second.

First: CCC[C@H](NC(C)=O)C(=O)N[C@H]1CSCc2cccc(c2)CSC[C@@H](C(N)=O)NC(=O)[C@H]([C@@H](C)O)NC(=O)[C@H](C2CCCCC2)NC(=O)[C@H](Cc2c[nH]c3ncccc23)NC(=O)[C@H](Cc2c[nH]cn2)NC(=O)[C@H](CCC(=O)O)NC(=O)[C@H](Cc2c[nH]c3ncccc23)NC(=O)[C@H]([C@@H](C)O)NC(=O)[C@@H]2CCCN2C(=O)[C@H](Cc2ccc(O)cc2)NC(=O)[C@H](C(C)(C)C)NC1=O [Compound 152] (Ac-[Nva]C[Tle]YPT[Trp(7-aza)]EH[Trp(7-aza)][Chg]TC-NH2; linker 2-13 via mXylylene)
Second: CCC[C@@H]1NC(=O)[C@H](Cc2c[nH]c3ncccc23)NC(=O)[C@H]([C@@H](C)O)NC(=O)[C@@H]2CCCN2C(=O)[C@H](Cc2ccc(O)cc2)NC(=O)[C@H](C(C)(C)C)NC(=O)CCSCc2cccc(c2)CSC[C@@H](C(N)=O)NC(=O)[C@H]([C@@H](C)O)NC(=O)[C@H](CCC)NC(=O)[C@H](Cc2ccc(O)cc2)NC(=O)[C@H](CCO)NC1=O [Compound 158] ([Mpa][Tle]YPT[Trp(7-aza)][Nva][hSer]Y[Nva]TC-NH2; linker 1-12 via mXylylene)
The IC50 of the first is lower: 1 to 100 nM for the first, 1000 to 21000 nM for the second.

With `CC(=O)N[C@H]1CSCc2cccc(c2)CSC[C@H](C(N)=O)NC(=O)[C@H]([C@@H](C)O)NC(=O)[C@](C)(C(C)C)NC(=O)[C@H](Cc2ccc(O)cc2)NC(=O)[C@H](C)NC(=O)C2(Cc3ccccc3C2)NC(=O)[C@H](Cc2c[nH]c3ncccc23)NC(=O)[C@H]([C@@H](C)O)NC(=O)[C@@H]2CCCN2C(=O)[C@H](Cc2ccc(O)cc2)NC(=O)[C@H](C(C)(C)C)NC1=O` [Compound 196] (Ac-C[Tle]YPT[Trp(7-aza)][Aic]AY[αMeV]T[dC]-NH2; linker 1-12 via mXylylene) the IC50 was 100 to 1000 nM.
